pIC50: −log10 of the molar value.

Chain of CBP recombinant proteins (Q92793 whole entry): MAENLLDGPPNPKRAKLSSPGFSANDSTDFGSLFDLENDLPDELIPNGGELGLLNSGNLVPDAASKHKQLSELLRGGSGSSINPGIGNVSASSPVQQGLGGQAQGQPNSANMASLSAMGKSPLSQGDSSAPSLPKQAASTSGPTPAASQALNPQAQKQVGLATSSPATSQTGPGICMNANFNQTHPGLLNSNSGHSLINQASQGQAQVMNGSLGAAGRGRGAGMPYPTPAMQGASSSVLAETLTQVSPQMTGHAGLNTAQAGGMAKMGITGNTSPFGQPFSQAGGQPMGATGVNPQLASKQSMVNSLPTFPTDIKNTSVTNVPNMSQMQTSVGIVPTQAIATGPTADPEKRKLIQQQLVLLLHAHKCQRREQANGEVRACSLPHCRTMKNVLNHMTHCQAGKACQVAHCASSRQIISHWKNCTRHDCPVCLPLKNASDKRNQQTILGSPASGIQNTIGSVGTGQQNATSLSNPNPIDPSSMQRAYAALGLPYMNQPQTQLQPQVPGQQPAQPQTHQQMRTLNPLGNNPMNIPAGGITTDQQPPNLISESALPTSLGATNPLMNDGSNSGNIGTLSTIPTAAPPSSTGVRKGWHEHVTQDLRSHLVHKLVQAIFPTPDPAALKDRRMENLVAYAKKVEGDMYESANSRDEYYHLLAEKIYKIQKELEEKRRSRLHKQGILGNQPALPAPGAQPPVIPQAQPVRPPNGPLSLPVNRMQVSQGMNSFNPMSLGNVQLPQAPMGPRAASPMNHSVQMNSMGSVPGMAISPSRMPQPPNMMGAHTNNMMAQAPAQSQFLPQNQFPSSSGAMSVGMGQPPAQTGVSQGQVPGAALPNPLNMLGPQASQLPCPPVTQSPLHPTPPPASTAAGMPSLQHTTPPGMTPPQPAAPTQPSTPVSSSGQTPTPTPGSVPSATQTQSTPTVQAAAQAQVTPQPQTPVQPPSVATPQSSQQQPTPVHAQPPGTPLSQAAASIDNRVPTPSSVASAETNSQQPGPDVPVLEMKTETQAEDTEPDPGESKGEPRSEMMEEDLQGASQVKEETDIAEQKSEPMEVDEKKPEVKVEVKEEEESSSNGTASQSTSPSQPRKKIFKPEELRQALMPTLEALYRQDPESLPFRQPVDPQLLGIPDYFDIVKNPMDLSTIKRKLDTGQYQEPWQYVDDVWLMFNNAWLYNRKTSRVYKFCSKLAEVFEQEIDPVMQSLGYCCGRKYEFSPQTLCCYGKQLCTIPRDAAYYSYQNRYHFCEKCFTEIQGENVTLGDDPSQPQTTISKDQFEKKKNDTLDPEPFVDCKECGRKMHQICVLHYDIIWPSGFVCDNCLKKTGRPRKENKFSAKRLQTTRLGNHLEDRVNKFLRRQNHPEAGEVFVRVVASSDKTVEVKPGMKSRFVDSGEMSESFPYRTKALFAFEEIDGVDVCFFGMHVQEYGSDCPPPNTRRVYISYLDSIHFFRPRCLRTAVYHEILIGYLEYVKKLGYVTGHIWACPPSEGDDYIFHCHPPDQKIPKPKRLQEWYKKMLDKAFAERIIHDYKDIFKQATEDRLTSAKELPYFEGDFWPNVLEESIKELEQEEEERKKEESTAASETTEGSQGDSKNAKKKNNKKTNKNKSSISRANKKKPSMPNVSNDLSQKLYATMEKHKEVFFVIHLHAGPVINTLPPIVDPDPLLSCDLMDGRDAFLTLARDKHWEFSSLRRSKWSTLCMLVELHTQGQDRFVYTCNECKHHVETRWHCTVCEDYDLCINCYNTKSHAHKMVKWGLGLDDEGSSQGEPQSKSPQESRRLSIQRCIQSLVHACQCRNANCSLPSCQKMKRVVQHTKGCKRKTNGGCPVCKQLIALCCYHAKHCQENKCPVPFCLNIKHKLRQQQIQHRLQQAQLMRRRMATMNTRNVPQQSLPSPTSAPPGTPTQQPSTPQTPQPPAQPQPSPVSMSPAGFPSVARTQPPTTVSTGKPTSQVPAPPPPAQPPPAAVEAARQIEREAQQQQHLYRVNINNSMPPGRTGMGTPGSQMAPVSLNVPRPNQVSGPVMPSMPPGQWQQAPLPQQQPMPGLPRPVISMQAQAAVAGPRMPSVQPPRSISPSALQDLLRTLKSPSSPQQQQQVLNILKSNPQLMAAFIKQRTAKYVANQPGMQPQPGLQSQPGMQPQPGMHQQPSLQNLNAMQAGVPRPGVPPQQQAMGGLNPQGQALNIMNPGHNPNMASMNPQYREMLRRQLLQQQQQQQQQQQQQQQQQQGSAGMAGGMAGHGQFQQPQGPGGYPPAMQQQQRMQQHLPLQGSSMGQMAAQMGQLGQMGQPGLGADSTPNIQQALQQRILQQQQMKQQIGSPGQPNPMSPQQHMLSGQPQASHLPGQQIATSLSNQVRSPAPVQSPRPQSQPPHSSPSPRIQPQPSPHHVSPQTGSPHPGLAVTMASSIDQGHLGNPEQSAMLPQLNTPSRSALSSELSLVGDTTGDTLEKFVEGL

This assay deals with CBP recombinant proteins (Homo sapiens (Human), UniProt Q92793). Put plainly: Competitive HTRF assay for affinity to CBP recombinant protein. As to conditions: His-tagged CBP 5 nM, biotin-labeled ligand 50 nM, 1% DMSO. The assay is classed as binding. Here is the method:
The affinity of the compounds synthesized in the present patert to the CBP recombinant proteins was determined by competitive HTRF method. His-tagged cyclic adenosine monophosphate response element binding protein (CREB-binding protein, CBP) was expressed in Escherichia coli system and further purified. CBP biotinylated ligands were all self-made. The BL21 star (DE3) competert cells transfected with His-tagged CBP protein genes at N-terminal were cultured at 37° C. for 16 h until the OD value was between 0.6 and 0.8, induced by 0.5 mM of IPTG and cultured overnight. The supernatant of cell lysate was purified by a Ni-ion affinity column and a Superdex75 molecular sieve column sequentially. The purity of resulting CBP proteins was 95%. The fluorescent donor reagent MAb Anti 6HIS—Eu cryptate Gold (Cisbio #61HI2KLA), the receptor reagent Streptavidin-XL665 (#610SAXLA) and the detection buffer (#62SDBRDD) required for HTRF were obtained from CISBIO BIOASSAYS (Codolet, France). Tris(2-carboxyethyl)phosphine hydrochloride (TCEP), sodium chloride, adenosine triphosphate (ATP), Tween-20, dimethylsulfoxide (DMSO), bovine serum albumin (BSA) and HEPES buffer were obtained from SIGMA at the highest level commercially available.
The general procedure of the competitive HTRF assay for the affinity to CBP recombinant proteins is as follows: 0.05% Tween-20 and 1 mM of TCEP were added immediately before the assay, and the assay was performed in a buffer consisting of 0.1 mg/ml BSA, 50 mM of HEPES and 5 mM of NaCl of pH 7.5. 2.5 μL of compound solution in a determination buffer with 4% DMSO and 5 μL of CBP solution in a determination buffer were added to a white low-volume 384-well microtiter plate, incubated at room temperature for 20 min, and then incubated at room temperature for 40 min by adding 2.5 μL of biotin-labeled ligand solution to the determination buffer. The final concentrations of CBP, biotin-labeled ligand and DMSO were 5 nM, 50 nM and 1%, respectively. Then, 5 μL of MAb Anti 6HIS—Eu cryptate Gold and […] of Streptavidin-XL665 in detection buffers from the manufacturer were added to the mixture, and the mixture was incubated for another 60 min. The final concentration of Streptavidin-XL665 was 12.5 nM, and MAb Anti 6HIS—Eu cryptate Gold was diluted according to the final concentration provided by the supplier. The multimode reader Spark from TECAN (Mannedorf, Switzerland) was used to read the plate to detect the homogeneous time-resolved fluorescence intensity of two groups, in which the excitation wavelength was 320 nm and the emission wavelengths were 665 nm and 620 nm. The IC50 value of the inhibitor was obtained by fitting fluorescence intensity ratios at 665 nm/620 nm with respect to the inhibitor concentration in an S-shaped dose-response curve by using Prism 7 (La Jolla, 15 CA).
In general terms: TR-FRET usually uses a lanthanide donor and a delayed reading to cut background.
Broadly, the pIC50 is the IC50 on a negative log10 scale, so that one unit is a factor of ten. For the compound `CNC(=O)c1cc2ccncc2c(N2CCCc3cc(-c4cnn(C)c4)c(C(F)F)cc32)n1` [Example 14, 1-[7-difluoro-methyl-6-(1-methyl-1H-pyrazol-4-yl)-3,4-dihydro-2H-quinolin-1-yl]-[2,7] naphthyridine-3-carboxylic acid methylamide], the pIC50 is 7.82.
On to `CNC(=O)c1cc2cccnc2c(N2CCCc3cc(-c4cnn(C)c4)c(C(F)F)cc32)n1` [Example 15, 8-[7-difluoro-methyl-6-(1-methyl-1H-pyrazol-4-yl)-3,4-dihydro-2H-quinolin-1-yl]-[1,7] naphthyridine-6-carboxylic acid methylamide], for which the pIC50 was 8.12.
As to `CNC(=O)c1cc2ccc(C3=CCOCC3)cc2c(N2CCCc3cc(-c4cnn(C)c4)c(C(F)F)cc32)n1` [Example 16, 1-[7-difluoromethyl-6-(1-methyl-1H-pyrazol-4-yl)-3,4-dihydro-2H-quinolin-1-yl]-7-(3,6-dihydro-2H-pyran-4-yl)-isoquinoline-3-carboxylic acid methylamide], the pIC50 was 7.89.
For the compound `CNC(=O)c1cc2ccc(C3CCOCC3)cc2c(N2CCCc3cc(-c4cnn(C)c4)c(C(F)F)cc32)n1` [Example 17, 1-[7-difluoromethyl-6-(1-methyl-1H-pyrazol-4-yl)-3,4-dihydro-2H-quinolin-1-yl]-7-(tetrahydro-4-yl)-isoquinoline-3-carboxylic acid methylamide], the pIC50 was 7.92.
As to `CNC(=O)c1cc2ccc(C3=CCOC3)cc2c(N2CCCc3cc(-c4cnn(C)c4)c(C(F)F)cc32)n1` [Example 18, 1-[7-difluoromethyl-6-(1-methyl-1H-pyrazol-4-yl)-3,4-dihydro-2H-quinolin-1-yl]-7-(2,5-dihydro-furan-3-yl)-isoquinoline-3-carboxylic acid methylamide], the pIC50 was 7.72.
For `CNC(=O)c1cc2ccc(C3CCOC3)cc2c(N2CCCc3cc(-c4cnn(C)c4)c(C(F)F)cc32)n1` (centres unmarked) [Example 19, 1-[7-difluoromethyl-6-(1-methyl-1H-pyrazol-4-yl)-3,4-dihydro-2H-quinolin-1-yl]-7-(tetrahydrofuran-3-yl)-isoquinoline-3-carboxylic acid methylamide], the pIC50 is 8.16.
In the case of `CNC(=O)c1cc2cc(C3=CCOCC3)ccc2c(N2CCCc3cc(-c4cnn(C)c4)c(C(F)F)cc32)n1` [Example 20, 1-[7-difluoromethyl-6-(1-methyl-1H-pyrazol-4-yl)-3,4-dihydro-2H-quinolin-1-yl]-6-(3,6-dihydro-2H-pyran-4-yl)-isoquino-line-3-carboxylic acid methylamide], the pIC50 was 7.74.
Turning to `CNC(=O)c1cc2cc(C3CCOCC3)ccc2c(N2CCCc3cc(-c4cnn(C)c4)c(C(F)F)cc32)n1` [Example 21, 1-[7-difluoromethyl-6-(1-methyl-1H-pyrazol-4-yl)-3,4-dihydro-2H-quinolin-1-yl]-6-(tetrahydro-pyran-4-yl)-isoquinoline-3-carboxylic acid methylamide], the pIC50 is 7.42.
For the compound `CNC(=O)c1cc2cc(C3=CCOC3)ccc2c(N2CCCc3cc(-c4cnn(C)c4)c(C(F)F)cc32)n1` [Example 22, 1-[7-difluoromethyl-6-(1-methyl-1H-pyrazol-4-yl)-3,4-dihydro-2H-quinolin-1-yl]-6-(2,5-dihydro-furan-3-yl)-isoquinoline-3-carboxylic acid methylamide], the pIC50 is 7.66.
The result for `CNC(=O)c1cc2cc(C3CCOC3)ccc2c(N2CCCc3cc(-c4cnn(C)c4)c(C(F)F)cc32)n1` (centres unmarked) [Example 23, 1-[7-difluoromethyl-6-(1-methyl-1H-pyrazol-4-yl)-3,4-dihydro-2H-quinolin-1-yl]-6-(tetrahydrofuran-3-yl)-isoquinoline-3-carboxylic acid methylamide] reads 7.74; that for `CNC(=O)c1cc2ccc(N3CCOC3=O)cc2c(N2CCCc3cc(-c4cnn(C)c4)c(C(F)F)cc32)n1` [Example 24, 1-[7-difluoromethyl-6-(1-methyl-1H-pyrazol-4-yl)-3,4-dihydro-2H-quinolin-1-yl]-7-(2-oxo-oxazolidin-3-yl)-isoquinoline-3-carboxylic acid methylamide], 8.11.

The values are drawn from patent publication US12486251B2 (PHARMABLOCK SCIENCES (NANJING) , INC., priority 2020, dated 2025).
